Measured values reported in patent US20030153030A1, “Enzyme-catalyzed modification of substances in biological mixtures” (priority 1999, published 2003).

Tests used:
MSCP5 cells = assay: Prostaglandin synthesis/release in 14C-arachidonic acid-marked skin keratinocytes; format: cell-based, Murine; settings: NS398 10 μM, positive control, 2 hours incubation
Method: FIG. 1 is a schematic illustration of the effects of salicin and salicin esters on the release of prostaglandin in keratinocytes. The average value of three measuring points is shown. In FIG. 1, 1=negative control, 2=salicin, 3=phenyl propionyl salicin, 4=p-OH-phenyl acetyl salicin and 5=positive control.
Murine (MSCP5) and human (HPKII) skin keratinocytes were marked for 16 hours with 0.2 μCi ^14C-arachidonic acid/ml medium. Salicin, phenylpropionyl salicin and p-OH-phenylacetyl salicin in fresh medium were added in increasing concentrations as test substances and incubated for 2 hours. In the positive control NS398 (10 μM) for MSCP5 cells, prostaglandin synthesis is reduced by 85%. The prostaglandins were identified by comparison with reference substances and quantified by radiodensitometry. MSCP5: 100%=201 cpm; HPKII: 100%=63 cpm.

[1] = Activity of salicin derivative as opposed to salicin; settings: modified versus unmodified salicin

Compound: CS(=O)(=O)Nc1ccc([N+](=O)[O-])cc1OC1CCCCC1 [NS398]
- prostaglandin synthesis is reduced by (MSCP5 cells): 85%

Compound: O=C(Cc1ccc(O)cc1)OCC1OC(Oc2ccccc2CO)C(O)C(O)C1O (centres unmarked) [p-OH-phenyl acetoyl salicin, p-OH-phenylacetyl salicin]
- improvement of activity as opposed to salicin [1]: improvements are also shown
